Measurements: paper PMC11090339, “Synthesis, molecular docking study and biological evaluation of new pyrrole scaffolds as potential antitubercular agents for dual targeting of enoyl ACP reductase and dihydrofolate reductase” (PLOS ONE, 2024)
≈ marks a conversion by molar mass, not a printed value.

Key:
M. tuberculosis H37Rv = experiment: Antitubercular activity, Microplate Alamar Blue test (MABA); type: cell-based; details: Mycobacterium tuberculosis
[1] = system: S. aureus (Gram-positive); experiment: Antibacterial activity, broth microdilution method; type: cell-based; details: Staphylococcus aureus, read-out: S. aureus (Gram +ve) MIC
E. coli (Gram-negative) = experiment: Antibacterial activity, broth microdilution method; type: cell-based; details: Escherichia coli, read-out: E. coli (Gram–ve) MIC
[2] = system: Mammalian Vero cell-lines; experiment: MTT-based cytotoxicity activity; details: Chlorocebus sabaeus, means ± SEM of three independent experiments, read-out: IC50 MV cell-lines
[3] = system: A549 (lung adenocarcinoma) cell-lines; experiment: MTT-based cytotoxicity activity; type: cell-based; details: Homo sapiens, means ± SEM of three independent experiments
MtDHFR = MtDHFR (Mycobacterium tuberculosis, UniProt P9WNX1); experiment: biochemical; type: biochemical; details: for MtDHFR inhibition compared with trimethoprim: in words
Chain of MtDHFR (P9WNX1 whole entry): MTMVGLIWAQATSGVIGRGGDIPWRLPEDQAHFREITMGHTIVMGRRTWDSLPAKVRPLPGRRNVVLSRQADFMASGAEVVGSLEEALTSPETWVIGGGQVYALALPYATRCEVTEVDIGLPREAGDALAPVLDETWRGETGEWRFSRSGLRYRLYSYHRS

InhA = InhA (Mycobacterium tuberculosis, UniProt P9WGR1); experiment: Enoyl ACP reductase (InhA) inhibition; type: biochemical
Chain of InhA (P9WGR1 whole entry, looked up): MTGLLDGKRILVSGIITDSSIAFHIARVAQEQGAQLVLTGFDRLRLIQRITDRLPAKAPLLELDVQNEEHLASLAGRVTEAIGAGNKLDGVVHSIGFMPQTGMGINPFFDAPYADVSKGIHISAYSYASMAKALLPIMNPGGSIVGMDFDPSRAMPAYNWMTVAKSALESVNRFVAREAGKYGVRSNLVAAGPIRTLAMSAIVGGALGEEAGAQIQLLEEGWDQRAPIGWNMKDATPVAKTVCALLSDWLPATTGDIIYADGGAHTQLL

Row | SMILES | MIC (M. tuberculosis H37Rv) [µg/mL] | MIC [1] [µg/mL] | MIC (E. coli (Gram-negative)) [µg/mL] | IC50 [2] [µM] | IC50 [3] [µM] | IC50 (MtDHFR) [µM] | MtDHFR inhibition compared with trimethoprim (MtDHFR) | inhibition at 50 µM (InhA) [%]
1 | Cc1ccc(OCC(=O)NNC(=O)c2ccc(-n3c(C)ccc3C)cc2)cc1 [Compound 5b, 4-(2,5-dimethyl-1H-pyrrol-1-yl)-N’-(2-(p-tolyloxy)acetyl) benzohydrazide] | 12.5 (≈ 33.1 µM) | 100 (≈ 265 µM) | 12.5 (≈ 33.1 µM) |  |  |  |  | 
2 | Cc1ccc(OCC(=O)NNC(=O)c2ccc(-n3cccc3)cc2)cc1 [Compound 3b, 4-(1H-pyrrol-1-yl)-N’-(2-(p-tolyloxy)acetyl)benzohydrazide] | 12.5 (≈ 35.8 µM) | 100 (≈ 286 µM) | 6.25 (≈ 17.9 µM) |  |  |  |  | 
3 | NC(=O)c1cnccn1 [Pyrazinamide, reference compound] | 3.12 (≈ 25.3 µM) |  |  |  |  |  |  | 
4 | NNC(=O)c1ccncc1 [INH, Isoniazid, reference compound] |  |  |  | > 450 | > 450 |  |  | 
5 | O=C(O)c1cn(C2CC2)c2cc(N3CCNCC3)c(F)cc2c1=O [Ciprofloxacin, reference compound] |  | 2 (≈ 6.04 µM) | 2 (≈ 6.04 µM) |  |  |  |  | 
6 | Cc1ccc(C)n1-c1ccc(C(=O)NNC(=O)COc2cc(O)cc(O)c2)cc1 [Compound 5g, N’-(2-(3,5-dihydroxyphenoxy)acetyl)-4-(2,5-dimethyl-1H-pyrrol-1-yl) benzohydrazide] | 3.12 (≈ 7.89 µM) | 100 (≈ 253 µM) | 3.12 (≈ 7.89 µM) |  |  |  |  | 
7 | O=C(COc1ccccc1O)NNC(=O)c1ccc(-n2cccc2)cc1 [Compound 3c, N’-(2-(2-hydroxyphenoxy)acetyl)-4-(1H-pyrrol-1-yl)benzohydrazide] | 3.12 (≈ 8.88 µM) | 100 (≈ 285 µM) | 3.12 (≈ 8.88 µM) | 223 ± 0.7 | 224 ± 0.6 | 25 | greater inhibition characteristics than trimethoprim | 46
8 | Cc1cc(C)cc(OCC(=O)NNC(=O)c2ccc(-n3c(C)ccc3C)cc2)c1 [Compound 5h, 4-(2,5-dimethyl-1H-pyrrol-1-yl)-N’-(2-(3,5-dimethylphenoxy)acetyl) benzohydrazide] | 3.12 (≈ 7.97 µM) | 100 (≈ 255 µM) | 3.12 (≈ 7.97 µM) |  |  |  |  | 
9 | Cc1ccc(C)n1-c1ccc(C(=O)NNC(=O)COc2ccccc2Cl)cc1 [Compound 5j, N’-(2-(2-chlorophenoxy)acetyl)-4-(2,5-dimethyl-1H-pyrrol-1-yl) ben zohydrazide] | 3.12 (≈ 7.84 µM) | 100 (≈ 251 µM) | 6.25 (≈ 15.7 µM) |  |  |  |  | 
10 | Cc1cc(C)cc(OCC(=O)NNC(=O)c2ccc(-n3cccc3)cc2)c1 [Compound 3h, N’-(2-(3,5-dimethylphenoxy)acetyl)-4-(1H-pyrrol-1-yl) benzohydrazide] | 3.12 (≈ 8.59 µM) | 100 (≈ 275 µM) | 3.12 (≈ 8.59 µM) | 219 ± 0.6 | 219 ± 0.1 | 19 | greater inhibition characteristics than trimethoprim | 59
11 | Cc1ccc(C)n1-c1ccc(C(=O)NNC(=O)COc2cccc(O)c2)cc1 [Compound 5i, 4-(2,5-dimethyl-1H-pyrrol-1-yl)-N’-(2-(3-hydroxyphenoxy)acetyl) benzohydrazide] | 6.25 (≈ 16.5 µM) | 100 (≈ 264 µM) | 3.12 (≈ 8.22 µM) |  |  |  |  | 
12 | Cc1cccc(OCC(=O)NNC(=O)c2ccc(-n3c(C)ccc3C)cc2)c1 [Compound 5e, 4-(2,5-dimethyl-1H-pyrrol-1-yl)-N’-(2-(m-tolyloxy)acetyl) benzohy drazide] | 1.6 (≈ 4.24 µM) | 100 (≈ 265 µM) | 3.12 (≈ 8.27 µM) | 220 ± 0.2 | 219 ± 0.3 | 62 | greater inhibition characteristics than trimethoprim | 66
13 | Cc1ccc(C)n1-c1ccc(C(=O)NNC(=O)COc2ccc(Cl)cc2)cc1 [Compound 5f, N’-(2-(4-chlorophenoxy)acetyl)-4-(2,5-dimethyl-1H-pyrrol-1-yl) ben zohydrazide] | 3.12 (≈ 7.84 µM) | 100 (≈ 251 µM) | 6.25 (≈ 15.7 µM) |  |  |  |  | 
14 | O=C(COc1cccc(O)c1)NNC(=O)c1ccc(-n2cccc2)cc1 [Compound 3i, N’-(2-(3-hydroxyphenoxy)acetyl)-4-(1H-pyrrol-1-yl)benzohydrazide] | 12.5 (≈ 35.6 µM) | 100 (≈ 285 µM) | 12.5 (≈ 35.6 µM) |  |  |  |  | 
15 | Cc1ccc(C)n1-c1ccc(C(=O)NNC(=O)COc2ccccc2)cc1 [Compound 5a, 4-(2,5-dimethyl-1H-pyrrol-1-yl)-N’-(2-phenoxyacetyl) benzohydrazide] | 6.25 (≈ 17.2 µM) | 100 (≈ 275 µM) | 6.25 (≈ 17.2 µM) |  |  | 98 |  | 26
16 | O=C(COc1cc(O)cc(O)c1)NNC(=O)c1ccc(-n2cccc2)cc1 [Compound 3g, N’-(2-(3,5-dihydroxyphenoxy)acetyl)-4-(1H-pyrrol-1-yl) benzohydrazide] | 3.12 (≈ 8.49 µM) | 100 (≈ 272 µM) | 1.6 (≈ 4.36 µM) | 216 ± 0.5 | 216 ± 0.5 | 20 | greater inhibition characteristics than trimethoprim | 63
17 | Cc1ccc(C)n1-c1ccc(C(=O)NNC(=O)COc2ccccc2O)cc1 [Compound 5c, 4-(2,5-dimethyl-1H-pyrrol-1-yl)-N’-(2-(2-hydroxyphenoxy)acetyl) benzohydrazide] | 12.5 (≈ 32.9 µM) | 100 (≈ 264 µM) | 12.5 (≈ 32.9 µM) |  |  |  |  | 
18 | O=C(COc1ccccc1)NNC(=O)c1ccc(-n2cccc2)cc1 [Compound 3a, N’-(2-phenoxyacetyl)-4-(1H-pyrrol-1-yl) benzohydrazide] | 12.5 (≈ 37.3 µM) | 100 (≈ 298 µM) | 6.25 (≈ 18.6 µM) |  |  |  |  | 
19 | Cc1ccc(OCC(=O)NNC(=O)c2ccc(-n3c(C)ccc3C)cc2)c(C)c1 [Compound 5d, 4-(2,5-dimethyl-1H-pyrrol-1-yl)-N’-(2-(2,4-dimethylphenoxy)acetyl) benzohydrazide] | 1.6 (≈ 4.09 µM) | 100 (≈ 255 µM) | 3.12 (≈ 7.97 µM) | 226 ± 0.5 | 222 ± 0.5 | 56 | greater inhibition characteristics than trimethoprim | 62
20 | Cc1cccc(OCC(=O)NNC(=O)c2ccc(-n3cccc3)cc2)c1 [Compound 3e, 4-(1H-pyrrol-1-yl)-N’-(2-(m-tolyloxy)acetyl)benzohydrazide] | 6.25 (≈ 17.9 µM) | 100 (≈ 286 µM) | 12.5 (≈ 35.8 µM) |  |  |  |  | 
21 | O=C(COc1ccc(Cl)cc1)NNC(=O)c1ccc(-n2cccc2)cc1 [Compound 3f, N’-(2-(4-chlorophenoxy)acetyl)-4-(1H-pyrrol-1-yl)benzohydrazide] | 6.25 (≈ 16.9 µM) | 100 (≈ 270 µM) | 12.5 (≈ 33.8 µM) |  |  | 122 |  | 
22 | Cc1ccc(OCC(=O)NNC(=O)c2ccc(-n3cccc3)cc2)c(C)c1 [Compound 3d, N’-(2-(2,4-dimethylphenoxy)acetyl)-4-(1H-pyrrol-1yl)benzohydrazide] | 3.12 (≈ 8.59 µM) | 100 (≈ 275 µM) | 1.6 (≈ 4.4 µM) | 216 ± 0.4 | 212 ± 0.4 | 32 | greater inhibition characteristics than trimethoprim | 48
23 | O=C(COc1ccccc1Cl)NNC(=O)c1ccc(-n2cccc2)cc1 [Compound 3j, N’-(2-(2-chlorophenoxy)acetyl)-4-(1H-pyrrol-1-yl)benzohydrazide] | 12.5 (≈ 33.8 µM) | 100 (≈ 270 µM) | 6.25 (≈ 16.9 µM) |  |  |  |  | 
24 | [H]/N=C(/N)N[C@H]1[C@H](O)[C@@H](O)[C@H](O[C@@H]2O[C@@H](C)[C@](O)(C=O)[C@H]2O[C@@H]2O[C@@H](CO)[C@H](O)[C@@H](O)[C@@H]2NC)[C@@H](N/C(N)=N\[H])[C@@H]1O [Streptomycin, reference compound] | 6.25 (≈ 10.7 µM) |  |  |  |  |  |  | 
